Results as given in patent US20250352539A1, “COMBINATION THERAPY FOR TREATING CANCER” (AstraZeneca AB, priority 2022, published 2025).
Where two headings read alike, the source gives them in different places.

Experiments:
Experiment in all cases: 10-day Cell Titre Glo combination screen
Format in all cases: cell-based
NCI-H1792 = settings: Homo sapiens; NCI-H1792 lung; monotherapy; read-out: mono AC50
Text: (§1) The Highest Single Agent (HSA) model is used to determine a combination's synergy score (and is based simply on the intuition that if a combination's effect exceeds the effect level of each of its constituents, there must be some combination interaction). Mathematically, the HSA model describes simple superposition of the single agent curves:
(§2) where CX,Y are the concentrations of the X and Y compound, and IX and IY are inhibitions of the single agents at CX,Y. It is also useful to calculate a volume score (HSA Volume) between the data and the HSA surface to characterise the overall strength of combination effects. Empirically derived combination matrices are compared to their respective HSA additivity models constructed from experimentally collected single agent dose response curves. Summation of this excess additivity across the dose response matrix is referred to HSA Volume.
(§3) Potency shifting can also be scored using combination index (CI). For a chosen iso-effect level (ICut), CI is calculated as: […]
(§4) where (CX/ECX) for a particular data point is the ratio of the X compound's measured concentration to its effective concentration at the chosen effect level. The CI is a rough estimate of how much drug was needed in combination relative to the single agent doses required to achieve the chosen effect level. CI values in the range of 0.5-0.7 are typical for in vitro measurements of current clinical combinations. The CI error (σCI) is calculated using standard error propagation through the CI calculation based on the isobologram errors.
(§5) This combination screen was a 10-day assay using Cell Titre Glo as the readout for viability.
(§6) The assay was performed in 384 well plates, with 1 cell line and 4 drug-drug combinations per plate dosed in a 6×6 matrix. A day zero reading was measured to determine growth inhibition. GenedataScreener was used to input the raw values for every well, and the software was programmed to normalise the values to the day zero and DMSO control values.
(§7) The CellTiter-Glo® Luminescent Cell Viability Assay is a homogeneous method to determine the number of viable cells in culture based on quantitation of the ATP present, which signals the presence of metabolically active cells. It relies on the properties of a proprietary thermostable luciferase (Ultra-Glo™ Recombinant Luciferase), which generates a stable “glow-type” luminescent signal and improves performance across a wide range of assay conditions.
(§8) The following information was reported: Synergy scores (HSA); combination index values; AC50 (half-maximal activity concentration) monotherapy values.

NCI-H838 = settings: Homo sapiens; NCI-H838 lung; monotherapy; read-out: mono AC50
Text: as §1, §2, §3, §4, §5, §6, §7, §8

MCF7 F100-16 = settings: Homo sapiens; MCF7 F100-16 breast; monotherapy; read-out: mono AC50
Text: as §1, §2, §3, §4, §5, §6, §7, §8

NCI-H522 = settings: Homo sapiens; NCI-H522 lung; monotherapy; read-out: mono AC50
Text: as §1, §2, §3, §4, §5, §6, §7, §8

A549 = settings: Homo sapiens; A549 lung; monotherapy; read-out: mono AC50
Text: as §1, §2, §3, §4, §5, §6, §7, §8

MDA-MB-468 = settings: Homo sapiens; MDA-MB-468 breast; monotherapy; read-out: mono AC50
Text: as §1, §2, §3, §4, §5, §6, §7, §8

Calu-1 = settings: monotherapy, read-out: mono AC50
Text: as §1, §2, §3, §4, §5, §6, §7, §8

NCI-H1573 = settings: Homo sapiens, NCI-H1573, 240 h, NCI-H1573 lung; monotherapy; read-out: mono AC50
Text: as §1, §2, §3, §4, §5, §6, §7, §8

CAL-51 = settings: Homo sapiens; CAL-51 breast; monotherapy; read-out: mono AC50
Text: as §1, §2, §3, §4, §5, §6, §7, §8

SUM52PE = SUM52PE breast; monotherapy; read-out: mono AC50
Text: as §1, §2, §3, §4, §5, §6, §7, §8

NCI-H1299 = settings: Homo sapiens; NCI-H1299 lung; monotherapy; read-out: mono AC50
Text: as §1, §2, §3, §4, §5, §6, §7, §8

NCI-H1993 = settings: Homo sapiens; NCI-H1993 lung; monotherapy; read-out: mono AC50
Text: as §1, §2, §3, §4, §5, §6, §7, §8

NCI-H3122 = settings: monotherapy, read-out: mono AC50
Text: as §1, §2, §3, §4, §5, §6, §7, §8

NCI-H441 = settings: Homo sapiens; NCI-H441 lung; monotherapy; read-out: mono AC50
Text: as §1, §2, §3, §4, §5, §6, §7, §8

NCI-H1373 = settings: Homo sapiens; NCI-H1373 lung; monotherapy; read-out: mono AC50
Text: as §1, §2, §3, §4, §5, §6, §7, §8

DU4475 = settings: Homo sapiens, DU-4475; DU4475 breast; monotherapy; read-out: mono AC50
Text: as §1, §2, §3, §4, §5, §6, §7, §8

NCI-H358 = settings: Homo sapiens; NCI-H358 lung; monotherapy; read-out: mono AC50
Text: as §1, §2, §3, §4, §5, §6, §7, §8

HOP62 = settings: Homo sapiens, HOP-62; HOP62 lung; monotherapy; read-out: mono AC50
Text: as §1, §2, §3, §4, §5, §6, §7, §8

HCC1187 = settings: Homo sapiens; HCC1187 breast; monotherapy; read-out: mono AC50
Text: as §1, §2, §3, §4, §5, §6, §7, §8

MCF7 = settings: Homo sapiens; MCF7 breast; monotherapy; read-out: mono AC50
Text: as §1, §2, §3, §4, §5, §6, §7, §8

NCI-H810 = settings: Homo sapiens; NCI-H810 lung; monotherapy; read-out: mono AC50
Text: as §1, §2, §3, §4, §5, §6, §7, §8

MDA-MB-134IV = MDA-MB-134IV breast; monotherapy; read-out: mono AC50
Text: as §1, §2, §3, §4, §5, §6, §7, §8

PC-9 = settings: Homo sapiens; PC-9 lung; monotherapy; read-out: mono AC50
Text: as §1, §2, §3, §4, §5, §6, §7, §8

LU99 = settings: Homo sapiens, Lu-99; LU99 lung; monotherapy; read-out: mono AC50
Text: as §1, §2, §3, §4, §5, §6, §7, §8

Work on `C[C@@H]1COCCN1c1cc(C2([S@](C)(=N)=O)CC2)nc(-c2ccnc3[nH]ccc23)n1` [AZD6738, 4-{4-[(3R)-3-Methylmorpholin-4-yl]-6-[1-((R)—S-methylsulfonimidoyl)cyclopropyl]pyrimidin-2-yl}-1H-pyrrolo[2,3-b]-pyridine] yielded an AC50 (NCI-H1792) of 0.677 µM, an AC50 (NCI-H838) of 0.274 µM and an AC50 (MCF7 F100-16) of 1.73 µM. The AC50 (NCI-H522) was 5.65 µM, the AC50 (A549) was 3.11 µM and the AC50 (MDA-MB-468) was 2.31 µM. The AC50 (Calu-1; Calu-1 lung) was 5.6 µM, the AC50 (Calu-1; Homo sapiens, Calu-1, Calu-1 lung) was 3.22 µM and the AC50 (NCI-H1573) was 1.39 µM. For the same compound, the AC50 (CAL-51) was 1.36 µM, the AC50 (SUM52PE) was 6.51 µM and the AC50 (NCI-H1299) was 3.18 µM. The AC50 (NCI-H1993) was 2.97 µM, the AC50 (NCI-H3122; Homo sapiens, NCI-H3122, NCI-H3122 lung) was 3.12 µM and the AC50 (NCI-H3122; NCI-H3122 lung) was 3.21 µM. For the same compound, the AC50 (NCI-H441) was 2.96 µM, the AC50 (NCI-H1373) was 1.24 µM and the AC50 (DU4475) was 3.25 µM. The AC50 (NCI-H358) was 2.67 µM, the AC50 (HOP62) was 0.59 µM and the AC50 (HCC1187) was 0.531 µM. It also gave an AC50 (MCF7) of 1.12 µM, an AC50 (NCI-H810) of 3.35 µM and an AC50 (MDA-MB-134IV) of 5.78 µM. The AC50 (PC-9) was 0.51 µM and the AC50 (LU99) was 0.581 µM.
